Source: patent US9718828B2 (MERCK SHARP & DOHME CORP., priority 2011, dated 2017)
Counter-ions that a name gives are not always drawn.

Biological target: hBTK (full-length BTK, 6HIS-tag cleaved) (Homo sapiens (Human), UniProt Q06187)
Assay: BTK enzymatic activity, LANCE TR-FRET assay (Assay Method C)
Format: biochemical
Conditions: LANCE TR-FRET, 50 pM hBTK, 25 μM ATP; class 100-1000 is given as ≧100 nM-<1 μM; read-out: IC50 Btk activity values - Assay Method C

Chain of hBTK (full-length BTK, 6HIS-tag cleaved) (Q06187 whole entry): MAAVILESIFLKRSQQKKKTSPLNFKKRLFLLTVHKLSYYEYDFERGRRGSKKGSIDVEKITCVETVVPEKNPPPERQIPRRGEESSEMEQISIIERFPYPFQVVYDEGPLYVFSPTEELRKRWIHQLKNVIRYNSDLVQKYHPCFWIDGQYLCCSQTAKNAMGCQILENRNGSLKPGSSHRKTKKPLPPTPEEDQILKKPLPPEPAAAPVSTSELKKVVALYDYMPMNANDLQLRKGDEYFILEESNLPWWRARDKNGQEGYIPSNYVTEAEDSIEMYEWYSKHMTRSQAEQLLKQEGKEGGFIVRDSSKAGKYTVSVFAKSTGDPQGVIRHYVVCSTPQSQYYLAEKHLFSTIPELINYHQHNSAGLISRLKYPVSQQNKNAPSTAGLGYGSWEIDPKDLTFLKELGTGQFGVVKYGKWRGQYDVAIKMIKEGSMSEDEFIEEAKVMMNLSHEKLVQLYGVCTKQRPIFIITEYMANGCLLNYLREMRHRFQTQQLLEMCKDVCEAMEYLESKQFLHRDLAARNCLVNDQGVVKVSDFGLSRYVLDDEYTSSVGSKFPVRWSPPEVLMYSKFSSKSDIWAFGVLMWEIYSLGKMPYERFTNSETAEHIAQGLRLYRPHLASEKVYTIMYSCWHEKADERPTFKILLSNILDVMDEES

Row | IC50 [nM] | Structure (SMILES)
1 | < 10 | Cc1ccnc(NC(=O)c2ccc(-c3nc([C@@H]4CCCN(C(=O)C5(C)COC5)C4)n4ccnc(N)c34)cc2)c1 [Example 352, 4-(8-amino-3-{(3R)-1-[(3-methyloxetan-3-yl)carbonyl]piperidin-3-yl}imidazo[1,5-a]pyrazin-1-yl)-N-(4-methylpyridin-2-yl)benzamide]
2 | < 10 | Nc1nccn2c([C@@H]3CCCN(C(=O)NC4CC4)C3)nc(-c3ccc(C(=O)Nc4cc(C(F)(F)F)ccn4)cc3F)c12 [Example 489, (3R)-3-[8-amino-1-(2-fluoro-4-{[4-(trifluoromethyl)pyridin-2-yl]carbamoyl}phenyl)imidazo[1,5-a]pyrazin-3-yl]-N-cyclopropylpiperidine-1-carboxamide]
3 | < 10 | C[C@H]1CO[C@@H](c2nc(-c3ccc(C(=O)Nc4cc(C(F)(F)F)ccn4)cc3)c3c(N)nccn23)CN1C(=O)C1CC1 [Example 516, 4-{8-amino-3-[(2R,5S)-4-(cyclopropylcarbonyl)-5-methylmorpholin-2-yl]imidazo[1,5-a]pyrazin-1-yl}-N-[4-(trifluoromethyl)pyridin-2-yl]benzamide, TFA salt]
4 | < 10 | Nc1nccn2c([C@@H]3CCCN(C(=O)c4cnccn4)C3)nc(-c3ccc(C(=O)Nc4cc(C(F)(F)F)ccn4)cc3)c12 [Example 336, 4-{8-amino-3-[(3R)-1-(pyrazin-2-ylcarbonyl)piperidin-3-yl]imidazo[1,5-a]pyrazin-1-yl}-N-[4-(trifluoromethyl)pyridin-2-yl]benzamide]
5 | < 10 | Nc1nccn2c([C@H]3CC[C@H](C(F)(F)F)N(C(=O)C4CC4)C3)nc(-c3ccc(C(=O)Nc4cc(F)ccn4)cc3)c12 [Example 424, 4-{8-amino-3-[(3S,6R)-1-(cyclopropylcarbonyl)-6-(trifluoromethyl)piperidin-3-yl]imidazo[1,5-a]pyrazin-1-yl}-N-(4-fluoropyridin-2-yl)benzamide]
6 | < 10 | CSCCC(=O)N1CCO[C@@H](c2nc(-c3ccc(C(=O)Nc4cc(C(F)(F)F)ccn4)cc3)c3c(N)nccn23)C1 [Example 502, 4-(8-amino-3-{(2R)-4-[3-(methylsulfanyl)propanoyl]morpholin-2-yl}imidazo[1,5-a]pyrazin-1-yl)-N-[4-(trifluoromethyl)pyridin-2-yl]benzamide]
7 | < 10 | CCN1C[C@H](c2nc(-c3ccc(C(=O)Nc4cc(C(F)(F)F)ccn4)cc3)c3c(N)nccn23)OC[C@@H]1CO [Example 549, 4-{8-amino-3-[(2R,5S)-4-ethyl-5-(hydroxymethyl)morpholin-2-yl]imidazo[1,5-a]pyrazin-1-yl}-N-[4-(trifluoromethyl)pyridin-2-yl]benzamide, TFA salt]
8 | < 10 | CCOCC(=O)N1CCC[C@@H](c2nc(-c3ccc(C(=O)Nc4cc(C(F)(F)F)ccn4)cc3)c3c(N)nccn23)C1 [Example 339, 4-{8-amino-3-[(3R)-1-(ethoxyacetyl)piperidin-3-yl]imidazo[1,5-a]pyrazin-1-yl}-N-[4-(trifluoromethyl)pyridin-2-yl]benzamide]
9 | < 10 | Nc1nccn2c([C@H]3CN(C4COC4)CCO3)nc(-c3ccc(C(=O)Nc4cc(C(F)(F)F)ccn4)cc3)c12 [Example 550, 4-{8-amino-3-[(2R)-4-oxetan-3-ylmorpholin-2-yl]imidazo[1,5-a]pyrazin-1-yl}-N-[4-(trifluoromethyl)pyridin-2-yl]benzamide, TFA salt]
10 | 10 to 100 | CC1(C(=O)N2CCC[C@@H](c3nc(-c4ccc(C(=O)Nc5ccc(F)cn5)cc4)c4c(N)nccn34)C2)COC1 [Example 351, 4-(8-amino-3-{(3R)-1-[(3-methyloxetan-3-yl)carbonyl]piperidin-3-yl}imidazo[1,5-a]pyrazin-1-yl)-N-(5-fluoropyridin-2-yl)benzamide]
11 | 10 to 100 | CC1(C(=O)N2CCC[C@@H](c3nc(-c4ccc(C(=O)Nc5cc(C(F)(F)F)ccn5)cc4)c4c(N)ncc(C=O)n34)C2)COC1 [Example 464, 4-(8-amino-5-formyl-3-{(3R)-1-[(3-methyloxetan-3-yl)carbonyl]piperidin-3-yl}imidazo[1,5-a]pyrazin-1-yl)-N-[4-(trifluoromethyl)pyridin-2-yl]benzamide]

The remaining lines, values behind:

Row | Structure (SMILES) | IC50 [nM]
12 | CC1(C(=O)N2CCC[C@@H](c3nc(-c4ccc(C(=O)Nc5cccnn5)cc4)c4c(N)nccn34)C2)COC1 [Example 357, 4-(8-amino-3-{(3R)-1-[(3-methyloxetan-3-yl)carbonyl]piperidin-3-yl}imidazo[1,5-a]pyrazin-1-yl)-N-pyridazin-3-ylbenzamide] | 100 to 1000
13 | CC1(C(=O)N2CCC[C@@H](c3nc(-c4ccc(C(=O)Nc5cc(OC(F)F)ccn5)cc4F)c4c(N)nccn34)C2)COC1 [Example 478, 4-(8-amino-3-{(3R)-1-[(3-methyloxetan-3-yl)carbonyl]piperidin-3-yl}imidazo[1,5-a]pyrazin-1-yl)-N-[4-(difluoromethoxy)pyridin-2-yl]-3-fluorobenzamide] | < 10
14 | COCC(=O)N1CCC[C@@H](n2nc(-c3ccc(C(=O)Nc4cc(C(F)(F)F)ccn4)cc3)c3c(N)nccc32)C1 [Example 383, 4-{4-amino-1-[(3R)-1-(methoxyacetyl)piperidin-3-yl]-1H-pyrazolo[4,3-c]pyridin-3-yl}-N-[4-(trifluoromethyl)pyridin-2-yl]benzamide] | < 10
15 | CC1(C(=O)N2CCC[C@@H](c3nc(-c4ccc(C(=O)Nc5cc(C#N)ccn5)cc4)c4c(N)ncc(Cl)n34)C2)COC1 [Example 445, 4-(8-amino-5-chloro-3-{(3R)-1-[(3-methyloxetan-3-yl)carbonyl]piperidin-3-yl}imidazo[1,5-a]pyrazin-1-yl)-N-(4-cyanopyridin-2-yl)benzamide] | < 10
16 | Nc1ncnc2c1c(-c1ccc(C(=O)Nc3cc(C(F)(F)F)ccn3)cc1)nn2[C@H]1CCCc2[nH]ncc21 [Example 555, 4-{4-amino-1-[(4S)-4,5,6,7-tetrahydro-1H-indazol-4-yl]-1H-pyrazolo[3,4-d]pyrimidin-3-yl}-N-[4-(trifluoromethyl)pyridin-2-yl]benzamide, TFA salt] | < 10
17 | COc1ccnc(NC(=O)c2ccc(-c3nc([C@@H]4CCCN(C(=O)C5(C)COC5)C4)n4ccnc(N)c34)cc2)n1 [Example 361, 4-(8-amino-3-{(3R)-1-[(3-methyloxetan-3-yl)carbonyl]piperidin-3-yl}imidazo[1,5-a]pyrazin-1-yl)-N-(4-methoxypyrimidin-2-yl)benzamide] | 100 to 1000
18 | Cc1cnc(N)c2c(-c3ccc(C(=O)Nc4cc(C(F)(F)F)ccn4)cc3)nc([C@H]3CN(C(=O)[C@@H](C)O)CCO3)n12 [Example 544, 4-(8-amino-3-{(2R)-4-[(2R)-2-hydroxypropanoyl]morpholin-2-yl}-5-methylimidazo[1,5-a]pyrazin-1-yl)-N-[4-(trifluoromethyl)pyridin-2-yl]benzamide] | < 10
19 | CC1(C(=O)N2CCO[C@@H](c3nc(-c4ccc(C(=O)Nc5cc(C(F)(F)F)ccn5)cc4)c4c(N)ncc(C#N)n34)C2)COC1 [Example 527, 4-(8-amino-5-cyano-3-{(2R)-4-[(3-methyloxetan-3-yl)carbonyl]morpholin-2-yl}imidazo[1,5-a]pyrazin-1-yl)-N-[4-(trifluoromethyl)pyridin-2-yl]benzamide] | < 10
20 | Nc1nccn2c([C@H]3CN(C(=O)C4CC4)CCO3)nc(-c3ccc(C(=O)Nc4cc(C(F)(F)F)ccn4)cc3F)c12 [Example 512, 4-{8-amino-3-[(2R)-4-(cyclopropylcarbonyl)morpholin-2-yl]imidazo[1,5-a]pyrazin-1-yl}-3-fluoro-N-[4-(trifluoromethyl)pyridin-2-yl]benzamide, TFA salt] | < 10
21 | Cc1ccc(NC(=O)c2ccc(-c3nc([C@@H]4CCCN(C(=O)C5(C)COC5)C4)n4ccnc(N)c34)cc2)nc1 [Example 356, 4-(8-amino-3-{(3R)-1-[(3-methyloxetan-3-yl)carbonyl]piperidin-3-yl}imidazo[1,5-a]pyrazin-1-yl)-N-(5-methylpyridin-2-yl)benzamide] | < 10
22 | Cc1cnc(N)c2c(-c3ccc(C(=O)Nc4cc(C(F)(F)F)ccn4)cc3F)nc([C@H]3CN(C(=O)C4(C)COC4)CCO3)n12 [Example 514, 4-(8-amino-5-methyl-3-{(2R)-4-[(3-methyloxetan-3-yl)carbonyl]morpholin-2-yl}imidazo[1,5-a]pyrazin-1-yl)-3-fluoro-N-[4-(trifluoromethyl)pyridin-2-yl]benzamide] | < 10
23 | COCCC(=O)N1CCO[C@@H](c2nc(-c3ccc(C(=O)Nc4cc(C(F)(F)F)ccn4)cc3)c3c(N)ncc(C)n23)C1 [Example 510, 4-{8-amino-3-[(2R)-4-(3-methoxypropanoyl)morpholin-2-yl]-5-methylimidazo[1,5-a]pyrazin-1-yl}-N-[4-(trifluoromethyl)pyridin-2-yl]benzamide] | < 10
24 | CC1(C(=O)N2CCC[C@@H](c3nc(-c4ccc(C(=O)Nc5ncns5)cc4)c4c(N)nccn34)C2)COC1 [Example 368, 4-(8-amino-3-{(3R)-1-[(3-methyloxetan-3-yl)carbonyl]piperidin-3-yl}imidazo[1,5-a]pyrazin-1-yl)-N-1,2,4-thiadiazol-5-ylbenzamide] | 10 to 100
25 | CCn1cc2c(n1)CCC[C@@H]2n1nc(-c2ccc(C(=O)Nc3cc(C(F)(F)F)ccn3)cc2)c2c(N)ncnc21 [Example 560, 4-{4-amino-1-[(4S)-2-ethyl-4,5,6,7-tetrahydro-2H-indazol-4-yl]-1H-pyrazolo[3,4-d]pyrimidin-3-yl}-N-[4-(trifluoromethyl)pyridin-2-yl]benzamide, TFA salt] | 10 to 100
26 | Cn1ncc2c1CCC[C@@H]2n1nc(-c2ccc(C(=O)Nc3cc(C(F)(F)F)ccn3)cc2)c2c(N)ncnc21 [Example 553, 4-{4-amino-1-[(4S)-1-methyl-4,5,6,7-tetrahydro-1H-indazol-4-yl]-1H-pyrazolo[3,4-d]pyrimidin-3-yl}-N-[4-(trifluoromethyl)pyridin-2-yl]benzamide, TFA salt] | < 10
